Data from patent US20060035927A1, “Calcilytic compounds” (SmithKline Beecham Corporation, priority 1999, published 2006).
Structures can show the parent of a compound that is named as a salt.

Assays:
osteopenic ovx rats = assay: Ovariectomized rat Study 1: dynamic histomorphometry of proximal tibia; assay type: in vivo
Source text: Seven month old virgin Sprague Dawley female rats were subjected to bilateral ovariectomy or sham surgery and the animals then held for a period of three months to allow the development of osteopenia. At that time a single sham group (n=10) and three groups of ovariectomized (ovx) animals (n=10-14) were assigned. The ovx groups were selected such that there was no significant difference in bone mineral density (“BMD”) of the lumbar spine, proximal tibia or distal femur between groups. Groups consisted of sham and ovx controls treated with dose vehicle (20% aqueous encapsin) and ovx groups treated with either N-[(2R-Hydroxy-3-[(3-chloro-2-cyano)phenoxy-propyl]-1,1-dimethyl-2-(2-naphthyl)ethyl amine hydrochloride (“calcilytic administered”) ([…] body weight daily p.o.) or rat PTH 1-34 (5 ug/kg body weight daily s.c.).
During the study blood samples were drawn for determination of circulating PTH and osteocalcin. BMD was determined by DXA (QDR4500 Hologic, Waltham, Mass.) prior to treatment and at weeks 4 and 8. At term tibiae were removed for histological analysis. All animals received tetracycline 10 and 3 days prior to the start of dosing and calcein (10 mg/kg) 10 and 3 days prior to sacrifice.
Bone samples were dehydrated through increasing concentrations of ethanol, defatted in acetone and embedded in methyl methacrylate (Polysciences, Inc., Warrington, Pa.). Longitudinal undecalcified sections (5 μm) sections of the proximal tibial were cut on a Leica microtome (SM2500S); the tissue blocks had been prestained with Villanueva stain. Histomorphometric analysis was carried out using an Osteomeasure system (OsteoMetrics Incorpotated), without knowledge of group allocation. Measurements within the tibial metaphysis were restricted to a mean tissue area of approximately 8 mm^2 beginning 1 mm below the growth plate. Primary measurements included area of bone and marrow (mm^2), bone area (mm^2), perimeter of bone (mm), single and double-labelled perimeter (sL.Pm, dL.Pm, m), osteoid perimeter (O.Pm, m) and eroded perimeter (Er.P, m). Derived indices included trabecular bone volume (% Tb.Ar), trabecular number (Th.N, mm^−1), trabecular thickness (Th.Th, μm), trabecular separation (Th.Sp, μm), bone formation rate, surface referent (BFR/Tb.Pm, μm^3/μm^2/year), BFR/Tb.Ar (bone area referent, %/year), BFR/B.Ar (tissue referent, %/year) and mineral apposition rate (MAR, μm/day), and percent labelled perimeter (% Lp). Statistical analysis was assessed by a two sided t-test.

[1] = tested on: primary human osteoblasts; assay: Osteoblast cAMP production, primary human osteoblasts; assay type: cell-based; settings: compound 0.1, 1 and 10 uM
Experimental: cAMP accumulation was measured in both human TF274 osteoblastic cells (derived by immortalization of human bone marrow stromal cells) see James, supra, and primary human osteoblasts derived from explants of trabecular bone as described in Beresford, Biochim. Biophys. Acta, Vol. 801, pp. 58-65 ([…]). cAMP levels in cell samples were measured using a non-radioactive protocol (Amersham kit). Alkaline phosphatase activity was determined using the standard colorimetric method as described previously in Gowen, Arth. Rheum., Vol. 31, pp. 1500-1507 (1988). N-[(2R-Hydroxy-3-[(3-chloro-2-cyano)phenoxy-propyl]-1,1-dimethyl-2-(2-naphthyl)ethyl amine hydrochloride was tested at 0.1, 1 and 10 uM. PTH 40 ng/ml was used as a positive control.

Ca^2+ receptor = molecular target: T1, Ca^2+ receptor (Homo sapiens, UniProt P41180); assay: Ca2+ receptor-mediated Ca2+ mobilization; assay type: cell-based
T1 sequence (P41180 20-1078): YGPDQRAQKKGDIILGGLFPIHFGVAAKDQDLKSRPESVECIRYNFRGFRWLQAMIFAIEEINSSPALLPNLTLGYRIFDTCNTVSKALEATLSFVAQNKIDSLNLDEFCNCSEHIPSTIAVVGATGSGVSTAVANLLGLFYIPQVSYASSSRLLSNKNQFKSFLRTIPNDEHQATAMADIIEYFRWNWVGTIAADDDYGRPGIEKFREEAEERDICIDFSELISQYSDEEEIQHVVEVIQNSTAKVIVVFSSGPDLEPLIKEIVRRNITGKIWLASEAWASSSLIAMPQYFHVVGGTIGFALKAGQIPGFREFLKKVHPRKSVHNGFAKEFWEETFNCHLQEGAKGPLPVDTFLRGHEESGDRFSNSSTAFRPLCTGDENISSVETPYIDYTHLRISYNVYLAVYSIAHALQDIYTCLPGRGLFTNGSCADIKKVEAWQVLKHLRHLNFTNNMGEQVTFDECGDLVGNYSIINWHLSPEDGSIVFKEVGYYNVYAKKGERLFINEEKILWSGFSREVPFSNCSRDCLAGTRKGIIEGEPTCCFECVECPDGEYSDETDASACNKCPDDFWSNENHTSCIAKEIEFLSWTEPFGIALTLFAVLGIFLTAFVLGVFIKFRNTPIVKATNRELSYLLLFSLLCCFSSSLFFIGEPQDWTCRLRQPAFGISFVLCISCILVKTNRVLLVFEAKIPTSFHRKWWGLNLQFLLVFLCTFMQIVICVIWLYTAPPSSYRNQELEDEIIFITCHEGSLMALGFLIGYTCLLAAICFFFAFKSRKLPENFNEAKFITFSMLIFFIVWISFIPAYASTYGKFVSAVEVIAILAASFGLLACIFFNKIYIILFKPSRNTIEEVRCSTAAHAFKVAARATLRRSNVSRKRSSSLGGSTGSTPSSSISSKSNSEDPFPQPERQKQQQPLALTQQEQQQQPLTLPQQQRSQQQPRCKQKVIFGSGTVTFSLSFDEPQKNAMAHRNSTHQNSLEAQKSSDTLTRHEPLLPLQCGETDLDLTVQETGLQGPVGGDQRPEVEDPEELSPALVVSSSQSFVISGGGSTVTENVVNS

[2] = Study 1, proximal tibia, vs ovx control, calcilytic 100 mmol/kg p.o. or PTH 5 ug/kg s.c. daily

Q: What does the source list for `CC(C)(Cc1ccc2ccccc2c1)NC[C@@H](O)COc1cccc(Cl)c1C#N` [N-[(2R-Hydroxy-3-[(3-chloro-2-cyano)phenoxy-propyl]-1,1-dimethyl-2-(2-naphthyl)ethylamine hydrochloride]?
A: bone formation and resorption, net bone gain or loss (osteopenic ovx rats; Study 1, overall outcome): dramatic increase in both bone formation and resorption, with no net bone gain or loss; bone turnover, BFR/B.Ar. (osteopenic ovx rats; Study 1, proximal tibia, compared with PTH and ovx control groups): dramatic increase; bone resorption, % eroded perimeter (osteopenic ovx rats; Study 1, proximal tibia, vs PTH or ovx control groups): significantly higher; bone formation: % labeled perimeter (% L.Pm.) (osteopenic ovx rats; [2]): elevated above the ovx control level; bone formation: % osteoid perimeter (% Os.Pm) (osteopenic ovx rats; [2]): elevated above the ovx control level; PTH-induced cAMP levels ([1]; PTH 40 ng/ml): no effect; cAMP levels (basal) ([1]; PTH 40 ng/ml positive control): no effect; fold by which fetal rat long bone IC50 exceeds IC50 for Ca^2+ receptor-mediated Ca^2+ mobilization (Ca^2+ receptor): approximately 300 fold
